# Test results from PubChem BioAssay (NCI).
#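 Assay format: 96-well plates, 48-hour exposure. Here, GI50 denotes the concentration required for 50% inhibition of growth. The concentration for full growth arrest is given as TGI.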
# How the values were obtained:
# Assay in all cases: NCI anticancer screen, dose series, 48 h
# SF-539 CNS = test system: SF-539 CNS
# HOP-92 NSCLC = test system: HOP-92 NSCLC
# SK-MEL-5 melanoma = test system: SK-MEL-5 melanoma
# OVCAR-4 ovarian = test system: OVCAR-4 ovarian
# MOLT-4 leukemia = test system: MOLT-4 leukemia
# KM12 colon = test system: KM12 colon
# BT-549 breast = test system: BT-549 breast
# A549 NSCLC = test system: A549 NSCLC
# HT29 colon = test system: HT29 colon
# HCT-116 colon = test system: HCT-116 colon
# SN12C renal = test system: SN12C renal
# SF-295 CNS = test system: SF-295 CNS
# RPMI-8226 leukemia = test system: RPMI-8226 leukemia
# HCC-2998 colon = test system: HCC-2998 colon
# HOP-62 NSCLC = test system: HOP-62 NSCLC
# NCI-H226 lung = test system: NCI-H226 lung
# HS 578T breast = test system: HS 578T breast
# SR leukemia = test system: SR leukemia
# COLO 205 colon = test system: COLO 205 colon
# T-47D breast = test system: T-47D breast
# NCI-H522 lung = test system: NCI-H522 lung
# OVCAR-5 ovarian = test system: OVCAR-5 ovarian
# MDA-MB-468 breast = test system: MDA-MB-468 breast
# U251 CNS = test system: U251 CNS
# 786-0 renal = test system: 786-0 renal
# TK-10 renal = test system: TK-10 renal
# MCF7 breast = test system: MCF7 breast
# IGROV1 ovarian = test system: IGROV1 ovarian
# LOX IMVI melanoma = test system: LOX IMVI melanoma
# RXF 393 renal = test system: RXF 393 renal
# A498 renal = test system: A498 renal
# SK-MEL-28 melanoma = test system: SK-MEL-28 melanoma
# UACC-257 melanoma = test system: UACC-257 melanoma
# SF-268 CNS = test system: SF-268 CNS
# NCI-H460 lung = test system: NCI-H460 lung
# SW-620 colon = test system: SW-620 colon
# NCI/ADR-RES ovarian = test system: NCI/ADR-RES ovarian
# OVCAR-3 ovarian = test system: OVCAR-3 ovarian
# MALME-3M melanoma = test system: MALME-3M melanoma
# DU-145 prostate = test system: DU-145 prostate
# HL-60(TB) leukemia = test system: HL-60(TB) leukemia
# PC-3 prostate = test system: PC-3 prostate
# ACHN renal = test system: ACHN renal
# SK-OV-3 ovarian = test system: SK-OV-3 ovarian
# SNB-19 CNS = test system: SNB-19 CNS
# K-562 leukemia = test system: K-562 leukemia
# CCRF-CEM leukemia = test system: CCRF-CEM leukemia
# UACC-62 melanoma = test system: UACC-62 melanoma
# CAKI-1 renal = test system: CAKI-1 renal
# MDA-MB-435 = test system: MDA-MB-435
# OVCAR-8 ovarian = test system: OVCAR-8 ovarian
# M14 melanoma = test system: M14 melanoma
# EKVX NSCLC = test system: EKVX NSCLC
# NCI-H23 lung = test system: NCI-H23 lung
# HCT-15 colon = test system: HCT-15 colon
smiles,measurement,setting,value
CC[C@]12C=CCN3CC[C@@]4(c5ccc(OC)cc5N(C)[C@H]4[C@@](O)(C(=O)OC)[C@@H]1OC(=O)CCCC[P+](C1CCCCC1)(C1CCCCC1)C1CCCCC1)[C@@H]32,GI50,SF-539 CNS,2.85 µM
same,TGI,SF-539 CNS,11 µM
same,GI50,HOP-92 NSCLC,1.02 µM
same,TGI,HOP-92 NSCLC,3.9 µM
same,GI50,SK-MEL-5 melanoma,1.88 µM
same,TGI,SK-MEL-5 melanoma,3.74 µM
same,GI50,OVCAR-4 ovarian,2.73 µM
same,TGI,OVCAR-4 ovarian,13.8 µM
same,GI50,MOLT-4 leukemia,1.72 µM
same,TGI,MOLT-4 leukemia,7.9 µM
same,GI50,KM12 colon,1.72 µM
same,TGI,KM12 colon,6.34 µM
same,GI50,BT-549 breast,2.45 µM
same,TGI,BT-549 breast,6.55 µM
same,GI50,A549 NSCLC,3.13 µM
same,TGI,A549 NSCLC,13.1 µM
same,GI50,HT29 colon,1.43 µM
same,TGI,HT29 colon,3.88 µM
same,GI50,HCT-116 colon,2.94 µM
same,TGI,HCT-116 colon,12 µM
same,GI50,SN12C renal,2.77 µM
same,TGI,SN12C renal,9.91 µM
same,GI50,SF-295 CNS,4.4 µM
same,TGI,SF-295 CNS,16.1 µM
same,GI50,RPMI-8226 leukemia,0.412 µM
same,TGI,RPMI-8226 leukemia,2.01 µM
same,GI50,HCC-2998 colon,1.31 µM
same,TGI,HCC-2998 colon,10.3 µM
same,GI50,HOP-62 NSCLC,3.9 µM
same,TGI,HOP-62 NSCLC,13.8 µM
same,GI50,NCI-H226 lung,4.41 µM
same,TGI,NCI-H226 lung,17.9 µM
same,GI50,HS 578T breast,2.61 µM
same,TGI,HS 578T breast,8.67 µM
same,GI50,SR leukemia,1.39 µM
same,TGI,SR leukemia,5.36 µM
same,GI50,COLO 205 colon,0.377 µM
same,TGI,COLO 205 colon,1.23 µM
same,GI50,T-47D breast,0.92 µM
same,TGI,T-47D breast,11.2 µM
same,GI50,NCI-H522 lung,0.643 µM
same,TGI,NCI-H522 lung,6.79 µM
same,GI50,OVCAR-5 ovarian,3.19 µM
same,TGI,OVCAR-5 ovarian,12.1 µM
same,GI50,MDA-MB-468 breast,0.378 µM
same,TGI,MDA-MB-468 breast,1.54 µM
same,GI50,U251 CNS,0.639 µM
same,TGI,U251 CNS,12.4 µM
same,GI50,786-0 renal,5.43 µM
same,TGI,786-0 renal,18.9 µM
same,GI50,TK-10 renal,3.08 µM
same,TGI,TK-10 renal,14.9 µM
same,GI50,MCF7 breast,1.05 µM
same,TGI,MCF7 breast,8.18 µM
same,GI50,IGROV1 ovarian,1.36 µM
same,TGI,IGROV1 ovarian,4.66 µM
same,GI50,LOX IMVI melanoma,2.9 µM
same,TGI,LOX IMVI melanoma,10.9 µM
same,GI50,RXF 393 renal,1.24 µM
same,TGI,RXF 393 renal,5.4 µM
same,GI50,A498 renal,13.3 µM
same,TGI,A498 renal,27.4 µM
same,GI50,SK-MEL-28 melanoma,1.38 µM
same,TGI,SK-MEL-28 melanoma,5.25 µM
same,GI50,UACC-257 melanoma,1.57 µM
same,TGI,UACC-257 melanoma,3.9 µM
same,GI50,SF-268 CNS,3.17 µM
same,TGI,SF-268 CNS,12.9 µM
same,GI50,NCI-H460 lung,2.71 µM
same,TGI,NCI-H460 lung,12.2 µM
same,GI50,SW-620 colon,2.75 µM
same,TGI,SW-620 colon,15.1 µM
same,GI50,NCI/ADR-RES ovarian,56.5 µM
same,TGI,NCI/ADR-RES ovarian,> 100 µM
same,GI50,OVCAR-3 ovarian,1.93 µM
same,TGI,OVCAR-3 ovarian,10.9 µM
same,GI50,MALME-3M melanoma,1.63 µM
same,TGI,MALME-3M melanoma,3.7 µM
same,GI50,DU-145 prostate,3.65 µM
same,TGI,DU-145 prostate,14.8 µM
same,GI50,HL-60(TB) leukemia,0.293 µM
same,TGI,HL-60(TB) leukemia,1.41 µM
same,GI50,PC-3 prostate,1.46 µM
same,TGI,PC-3 prostate,10.4 µM
same,GI50,ACHN renal,16 µM
same,TGI,ACHN renal,29.6 µM
same,GI50,SK-OV-3 ovarian,2.28 µM
same,TGI,SK-OV-3 ovarian,6.94 µM
same,GI50,SNB-19 CNS,1.92 µM
same,TGI,SNB-19 CNS,11.3 µM
same,GI50,K-562 leukemia,0.983 µM
same,TGI,K-562 leukemia,16.2 µM
same,GI50,CCRF-CEM leukemia,2.55 µM
same,TGI,CCRF-CEM leukemia,10.5 µM
same,GI50,UACC-62 melanoma,1.53 µM
same,TGI,UACC-62 melanoma,3.64 µM
same,GI50,CAKI-1 renal,16.7 µM
same,TGI,CAKI-1 renal,30.6 µM
same,GI50,MDA-MB-435,2.62 µM
same,TGI,MDA-MB-435,10.7 µM
same,GI50,OVCAR-8 ovarian,2.93 µM
same,TGI,OVCAR-8 ovarian,11.9 µM
same,GI50,M14 melanoma,2.2 µM
same,TGI,M14 melanoma,12 µM
same,GI50,EKVX NSCLC,3.13 µM
same,TGI,EKVX NSCLC,16.2 µM
same,GI50,NCI-H23 lung,2.34 µM
same,TGI,NCI-H23 lung,8.99 µM
same,GI50,HCT-15 colon,16.1 µM
same,TGI,HCT-15 colon,30.5 µM
